Source: patent publication US20260294769A1, “ASCORBIC ACID DERIVATIVES AND COSMETIC THEREOF” (SEIWA KASEI COMPANY, LIMITED, priority 2023, published 2026)
Where two headings read alike, the source gives them in different places.

Legend:
[1] = Stability Test-1: residual rate of 1% aqueous solutions stored at 50° C. (HPLC); assay type: physicochemical; conditions: water; for remaining at 672 h: after 4 weeks
Description: (§1) For each of the samples of Synthesis Examples 1 to 6, 1% aqueous solutions were adjusted to pH 3, 5, 7, 8, and 9 with a dilute potassium hydroxide aqueous solution, and then placed in 50 mL screw tubes and sealed. […] Furthermore, the odor and coloration of the samples adjusted to pH 7 were evaluated based on the following methods and criteria, and the results are shown in Table 11.
• ⊚: 80% or more • ◯: 50% or more, less than 80% • Δ: 30% or more, less than 50% • x: Less than 30%

[2] = Stability Test-1: odor of 1% aqueous solutions adjusted to pH 7 stored at 50° C.; assay type: physicochemical; conditions: 1% aqueous solution pH 7, 50° C., 10 panelists
Description: as §1
(§2) • Evaluation was made by 10 panelists according to the following criteria. • 3: Almost odorless. • 2: There is a slight strange odor. • 1: A strong odor is detected. • Based on the results of the above evaluation, the following classification was made: • ◯: Total score of 10 panelists is 25 or more • Δ: Total score of 10 panelists is 16-24 • x: The total score of 10 panelists is 15 or less

[3] = Stability Test-1: coloration of 1% aqueous solutions adjusted to pH 7 stored at 50° C.; assay type: physicochemical; conditions: 1% aqueous solution pH 7, 50° C., 10 panelists
Description: as §1
• Evaluation was made by 10 panelists according to the following criteria. • 3: Almost no change compared to immediately after preparation. • 2: Color changes compared to immediately after preparation. • 1: Strongly colored compared to immediately after preparation. • Based on the results of the above evaluation, the following classification was made: […]

[4] = test system: Normal human dermal fibroblasts; test: Collagen production promoting effect (ELISA of free collagen in supernatant); assay type: cell-based; conditions: 10 mM or less, 48 hours, control group set to 100%, N=3
Description: Normal human dermal fibroblasts were prepared in D-MEM containing 5% (v/v) fetal bovine serum to a cell density of 2.5×10^4 cells/well, and then pre-incubated for 24 hours on a 96-well plate. After removing the medium, samples prepared to a predetermined concentration in D-MEM containing 5% (v/v) fetal bovine serum were added to each well and cultured for 48 hours. After the culture was completed, the amount of free collagen in the supernatant was quantified by ELISA. Measurements were performed in triplicate (N=3).
The amount of collagen produced when the sample was measured at a concentration of 10 mM or less was compared with that of the control group, and the results (% values when the control group was set to 100%) are shown in Table 17 based on the following criteria.

[5] = test system: Normal human dermal fibroblasts (NHDF); test: Hyaluronic acid production promoting effect (ELISA of hyaluronic acid in supernatant); assay type: cell-based; conditions: 10 mM or less, 48 hours, control group set to 100%, N=3
Description: Normal human dermal fibroblasts (NHDF) were prepared in D-MEM containing 5% (v/v) fetal bovine serum to a cell density of 2.5×10^4 cells/well, and then pre-incubated on a 96-well plate for 24 hours. After removing the medium, samples prepared in serum-free D-MEM were added to each well and cultured for 48 hours. After the culture was completed, the amount of hyaluronic acid in the supernatant was quantified by ELISA. Measurements were performed in triplicate (N=3).
The amount of hyaluronic acid produced when the sample was measured at a concentration of 10 mM or less was compared with that of the control group, and the results (% values when the control group is set to 100%) are shown in Tables 18 to 20 based on the following criteria.

[6] = Stability Test-2: residual rate in cream of pH 7 or 9 stored at 50° C.; assay type: physicochemical
Description: (§3) For each of the samples of Synthesis Examples 9 to 32, (a) and (b) shown in Table 12 were each heated and mixed. After cooling, (c) shown in Table 12 was added to prepare a cream with a pH of 7 or 9. […] The odor and coloration were also evaluated according to the same method and criteria as in Test Example 1. The results regarding the residual rate are shown in Tables 13 and 14, and the results regarding the odor and coloration are shown in Tables 15 and 16.

[7] = Stability Test-2: odor of cream stored at 50° C.; assay type: physicochemical; conditions: 10 panelists
From the text: as §2, §3

[8] = Stability Test-2: coloration of cream stored at 50° C.; assay type: physicochemical; conditions: 10 panelists
From the text: • Evaluation was made by 10 panelists according to the following criteria. • 3: Almost no change compared to immediately after preparation. • 2: Color changes compared to immediately after preparation. • 1: Strongly colored compared to immediately after preparation. • Based on the results of the above evaluation, the following classification was made:
as §3

[9] = pH 3, 50° C., after 2 weeks, 1% aqueous solution, read-out: Residual Rate
[10] = pH 3, 50° C., 1% aqueous solution
[11] = pH 5, 50° C., after 2 weeks, 1% aqueous solution, read-out: Residual Rate
[12] = pH 5, 50° C., 1% aqueous solution
[13] = pH 7, 50° C., after 2 weeks, 1% aqueous solution, read-out: Residual Rate
[14] = pH 7, 50° C., 1% aqueous solution
[15] = pH 8, 50° C., after 2 weeks, 1% aqueous solution, read-out: Residual Rate
[16] = pH 8, 50° C., 1% aqueous solution
[17] = pH 9, 50° C., after 2 weeks, 1% aqueous solution, read-out: Residual Rate
[18] = pH 9, 50° C., 1% aqueous solution
[19] = cream pH 7, 50° C., after 2 weeks, 20160 min
[20] = cream pH 7, 50° C., after 4 weeks, 40320 min
[21] = cream pH 9, 50° C., after 2 weeks, 20160 min
[22] = cream pH 9, 50° C., after 4 weeks, 40320 min

Row | remaining at 336 h [1, 9] | remaining at 672 h [1, 10] | remaining at 336 h [1, 11] | remaining at 672 h [1, 12] | remaining at 336 h [1, 13] | remaining at 672 h [1, 14] | remaining at 336 h [1, 15] | remaining at 672 h [1, 16] | remaining at 336 h [1, 17] | remaining at 672 h [1, 18] | Residual Rate [6, 19] | Residual Rate [6, 20] | Residual Rate [6, 21] | Residual Rate [6, 22] | Odor ([7]; after 4 weeks) | Structure (SMILES) | Collagen production-promoting effect [4] | Hyaluronic acid production-promoting effect [5] | Odor ([7]; after 2 weeks) | Coloration ([8]; after 2 weeks) | Coloration ([8]; after 4 weeks) | also measured
1 | ≥ 80% | ≥ 80% | ≥ 80% | ≥ 80% | ≥ 80% | ≥ 80% | ≥ 80% | 50 to 80% | 50 to 80% | 30 to 50% |  |  |  |  |  | O=C1OC(C(O)CO)C2=C1OCCCO2 (stereo not shown) [Synthesis Example 2, 2,3-O-(1,3-propanediyl) ascorbic acid] | ++ (140%<) | ++ (120%<) |  |  |  | Odor ([2]; after 2 weeks): ∘ (Total score of 10 panelists is 25 or more); Odor ([2]; after 4 weeks): Δ (Total score of 10 panelists is 16-24); Coloration ([3]; after 2 weeks): ∘ (Total score of 10 panelists is 25 or more); Coloration ([3]; after 4 weeks): ∘ (Total score of 10 panelists is 25 or more)
2 |  |  |  |  |  |  |  |  |  |  | ⊚ (95% or more) | ⊚ (95% or more) | ⊚ (95% or more) | ⊚ (95% or more) | Δ (Total score of 10 panelists is 16-24) | CCCCCCCCCCCCCCCC(=O)OCC(O)C1OC(=O)C2=C1OCCCCO2 (stereo not shown) [Synthesis Example 15, 6-O-palmitoyl-2,3-O-(1,4-butanediyl) ascorbic acid] | ++ (140%<) | ++ (120%<) | ◯ (Total score of 10 panelists is 25 or more) | ◯ (Total score of 10 panelists is 25 or more) | ◯ (Total score of 10 panelists is 25 or more) | 
3 |  |  |  |  |  |  |  |  |  |  | ⊚ (95% or more) | ⊚ (95% or more) | ⊚ (95% or more) | ⊚ (95% or more) | Δ (Total score of 10 panelists is 16-24) | CC(C)CCCCCCCCCCCCCCC(=O)OCC(OC(=O)CCCCCCCCCCCCCCC(C)C)C1OC(=O)C2=C1OCCCO2 (stereo not shown) [Synthesis Example 29, 5,6-O-diisostearoyl-2,3-O-(1,3-propanediyl) ascorbic acid] | ++ (140%<) |  | ◯ (Total score of 10 panelists is 25 or more) | ◯ (Total score of 10 panelists is 25 or more) | ◯ (Total score of 10 panelists is 25 or more) | 
4 |  |  |  |  |  |  |  |  |  |  | ⊚ (95% or more) | ⊚ (95% or more) | ⊚ (95% or more) | ⊚ (95% or more) | Δ (Total score of 10 panelists is 16-24) | CCCC(=O)OCC(OC(=O)CCC)C1OC(=O)C2=C1OCCCO2 (stereo not shown) [Synthesis Example 21, 5,6-O-dibutanoyl-2,3-O-(1,3-propanediyl) ascorbic acid] | ++ (140%<) | ++ (120%<) | ◯ (Total score of 10 panelists is 25 or more) | ◯ (Total score of 10 panelists is 25 or more) | ◯ (Total score of 10 panelists is 25 or more) | 
5 |  |  |  |  |  |  |  |  |  |  | ⊚ (95% or more) | ⊚ (95% or more) | ⊚ (95% or more) | ⊚ (95% or more) | Δ (Total score of 10 panelists is 16-24) | CCCCCCCC(=O)OCC(OC(=O)CCCCCCC)C1OC(=O)C2=C1OCCCCO2 (stereo not shown) [Synthesis Example 12, 5,6-O-dioctanoyl-2,3-O-(1,4-butanediyl) ascorbic acid] | ++ (140%<) | ++ (120%<) | ◯ (Total score of 10 panelists is 25 or more) | ◯ (Total score of 10 panelists is 25 or more) | ◯ (Total score of 10 panelists is 25 or more) | 
6 | ≥ 80% | ≥ 80% | ≥ 80% | ≥ 80% | 50 to 80% | 50 to 80% | 50 to 80% | 30 to 50% | 50 to 80% | 30 to 50% |  |  |  |  |  | O=C1OC(C(O)CO)C2=C1OCC1(COC1)CO2 (stereo not shown) [Synthesis Example 6, 2,3-O-(3,3-dimethyleneoxetane) ascorbic acid] | ++ (140%<) | ++ (120%<) |  |  |  | Odor ([2]; after 2 weeks): ∘ (Total score of 10 panelists is 25 or more); Odor ([2]; after 4 weeks): ∘ (Total score of 10 panelists is 25 or more); Coloration ([3]; after 2 weeks): ∘ (Total score of 10 panelists is 25 or more); Coloration ([3]; after 4 weeks): ∘ (Total score of 10 panelists is 25 or more)
7 |  |  |  |  |  |  |  |  |  |  | ⊚ (95% or more) | ⊚ (95% or more) | ⊚ (95% or more) | ⊚ (95% or more) | Δ (Total score of 10 panelists is 16-24) | CCCCCCCCCCCCCCCC(=O)OCC(OC(=O)CCCCCCCCCCCCCCC)C1OC(=O)C2=C1OCCCO2 (stereo not shown) [Synthesis Example 27, 5,6-O-dipalmitoyl-2,3-O-(1,3-propanediyl) ascorbic acid] | ++ (140%<) | ++ (120%<) | ◯ (Total score of 10 panelists is 25 or more) | ◯ (Total score of 10 panelists is 25 or more) | Δ (Total score of 10 panelists is 16-24) | 
8 | 50 to 80% | 30 to 50% | 50 to 80% | < 30% | < 30% | < 30% | < 30% | < 30% | < 30% | < 30% |  |  |  |  |  | O=C1O[C@H]([C@@H](O)CO)C(O)=C1O [Ascorbic acid] |  | ± (<100%) |  |  |  | remaining at 336 h ([1]; pH 7 to 9, 50° C., after two weeks, read-out: residual rates): < 30%; Odor ([2]; after 2 weeks): Δ (Total score of 10 panelists is 16-24); Odor ([2]; after 4 weeks): x (The total score of 10 panelists is 15 or less); Coloration ([3]; after 2 weeks): Δ (Total score of 10 panelists is 16-24); Coloration ([3]; after 4 weeks): x (The total score of 10 panelists is 15 or less)
